In patent US8450361B2, “Substituted indole and azaindole oxoacetyl piperazinamide derivatives” (priority 2010, dated 2013):

system: HIV-1; assay: Single-round infectious HIV-1 luciferase reporter virus infection of HeLa CD4 cells; format: cell-based; details: Human immunodeficiency virus 1, HeLa, 72 h, read-out: EC50 Group from Table 1
Protocol: • Virus production—Human embryonic Kidney cell line, 293T, was propagated in Dulbecco's Modified Eagle Medium (Invitrogen, Carlsbad, Calif.) containing 10% fetal Bovine serum (FBS, Sigma, St. Louis, Mo.). • Virus infection—Human epithelial cell line, HeLa, expressing the HIV-1 receptor CD4 was propagated in Dulbecco's Modified Eagle Medium (Invitrogen, Carlsbad, Calif.) containing 10% fetal Bovine serum (FBS, Sigma, St. Louis, Mo.) and supplemented with 0.2 mg/mL Geneticin (Invitrogen, Carlsbad, Calif.). Virus—Single-round infectious reporter virus was produced by co-transfecting human embryonic Kidney 293 cells with an HIV-1 envelope DNA expression vector and a proviral cDNA containing an envelope deletion mutation and the luciferase reporter gene inserted in place of HIV-1 nef sequences (Chen et al, Ref 41). Transfections were performed using lipofectAMINE PLUS reagent as described by the manufacturer (Invitrogen, Carlsbad, Calif.). Experiment • 1. HeLa CD4 cells were plated in 96 well plates at a cell density of 1×10^4 cells per well in 100 μl Dulbecco's Modified Eagle Medium containing 10% fetal Bovine serum and incubated overnight. • 2. Compound was added in a 2 μl dimethylsulfoxide solution, so that the final assay concentration would be ≦10 μM. • 3. 100 μl of single-round infectious reporter virus in Dulbecco's Modified Eagle Medium was then added to the plated cells and compound at an approximate multiplicity of infection (MOI) of 0.01, resulting in a final volume of 200 μl per well. • 4. Virally-infected cells were incubated at 37 degrees Celsius, in a CO2 incubator, and harvested 72 h after infection. • 5. Viral infection was monitored by measuring luciferase expression from viral DNA in the infected cells using a luciferase reporter gene assay kit, as described by the manufacturer (Roche Molecular Biochemicals, Indianapolis, Ind.). Infected cell supernatants were removed and 50 μl of lysis buffer was added per well. After 15 minutes, 50 μl of freshly-reconstituted luciferase assay reagent was added per well. Luciferase activity was then quantified by measuring luminescence using a Wallac microbeta scintillation counter. • 6. The percent inhibition for each compound was calculated by quantifying the level of luciferase expression in cells infected in the presence of each compound as a percentage of that observed for cells infected in the absence of compound and subtracting such a determined value from 100. • 7. An EC50 provides a method for comparing the antiviral potency of the compounds of this invention. The effective concentration for fifty percent inhibition (EC50) was calculated with the Microsoft Excel Xlfit curve fitting software. For each compound, curves were generated from percent inhibition calculated at 10 different concentrations by using a four parameter logistic model (model 205). Table 1 is the key for the data in Table 2. Results

Compound | EC50
C[C@@H]1CN(C(=O)c2ccccc2)CCN1C(=O)C(=O)c1c[nH]c2c(N3CCN(CCCl)C3=O)cccc12 [P-G-1] | < 1000 nM
C[C@@H]1CN(C(=O)c2ccccc2)CCN1C(=O)C(=O)c1c[nH]c2c(NC(=O)NCCCCNC(=O)Nc3cccc(B(O)O)c3)cccc12 [P-C-112] | < 1000 nM
CC(C)/N=C(/Nc1cccc2c(C(=O)C(=O)N3CCN(C(=O)c4ccccc4)C[C@H]3C)c[nH]c12)NC(C)C [P-F-1] | < 1000 nM
C[C@@H]1CN(C(=O)c2ccccc2)CCN1C(=O)C(=O)c1c[nH]c2c(NC(=O)Nc3ccc(B(O)O)cc3)cccc12 [P-C-204] | < 1000 nM
COS(=O)(=O)c1ccc(NC(=O)Nc2cccc3c(C(=O)C(=O)N4CCC(=C(C#N)c5ccccc5)CC4)c[nH]c23)cc1 [P-C-18] | < 1000 nM
C[C@@H]1CN(C(=O)c2ccccc2)CCN1C(=O)C(=O)c1c[nH]c2c(NC(=O)NCC(=O)O)cccc12 [P-I-18] | < 1000 nM
CC1NC(=O)N(c2cccc3c(C(=O)C(=O)N4CCN(C(=O)c5ccccc5)C[C@H]4C)c[nH]c23)C1=O (stereo partly shown) [P-G-2] | < 1000 nM
CCOC(=O)CCCNC(=O)Nc1ncc(F)c2c(C(=O)C(=O)N3CCN(C(=O)c4ccccc4)CC3)c[nH]c12 [P-C-26] | < 1000 nM
N#CC(=C1CCN(C(=O)C(=O)c2c[nH]c3c(NC(=O)Nc4cccc(C(=O)O)c4)cccc23)CC1)c1ccccc1 [P-I-12] | < 1000 nM
N#CC(=C1CCN(C(=O)C(=O)c2c[nH]c3c(NC(=O)Nc4ccc(C(=O)O)cc4)cccc23)CC1)c1ccccc1 [P-I-13] | < 1000 nM
C[C@@H]1CN(C(=O)c2ccccc2)CCN1C(=O)C(=O)c1c[nH]c2c(NC(=O)CO)cccc12 [P-I-1] | < 1000 nM
C[C@@H]1CN(C(=O)c2ccccc2)CCN1C(=O)C(=O)c1c[nH]c2c(NC(=O)c3ccc(B(O)O)cc3)cccc12 [P-A-23] | < 1000 nM
COC(=O)NCCCCNC(=O)Nc1cccc2c(C(=O)C(=O)N3CCN(C(=O)c4ccccc4)C[C@H]3C)cn(C(=O)NCCCCNC(=O)OC)c12 [P-C-115] | < 1000 nM
C[C@@H]1CN(C(=O)c2ccccc2)CCN1C(=O)C(=O)c1c[nH]c2c(NC(=O)Nc3cccc(C(=O)O)c3)cccc12 [P-I-11] | < 1000 nM
CCOC(=O)c1cccc(NC(=O)Nc2cccc3c(C(=O)C(=O)N4CCN(C(=O)c5ccccc5)C[C@H]4C)c[nH]c23)c1 [P-C-12] | < 1000 nM
CC(=O)Nc1ccc(F)c2c(C(=O)C(=O)N3CCC(=C(C#N)c4ccccc4)CC3)c[nH]c12 [P-B-4] | < 1000 nM
N#CC(=C1CCN(C(=O)C(=O)c2c[nH]c3c(NC(=O)NC4CCN(C(=O)C(F)(F)F)CC4)cccc23)CC1)c1ccccc1 [P-C-25] | < 1000 nM
C[C@@H]1CN(C(=O)c2ccccc2)CCN1C(=O)C(=O)c1c[nH]c2c(NC(=O)C3OC3C(=O)O)cccc12 (stereo partly shown) [P-A-10] | < 1000 nM
CCOC(=O)CCNC(=O)Nc1cccc2c(C(=O)C(=O)N3CCC(=C(C#N)c4ccccc4)CC3)c[nH]c12 [P-C-3] | < 1000 nM
COC(=O)c1cc(NC(=O)Nc2cccc3c(C(=O)C(=O)N4CCC(=C(C#N)c5ccccc5)CC4)c[nH]c23)cc(C(=O)OC)c1 [P-C-17] | < 1000 nM
N#CC(=C1CCN(C(=O)C(=O)c2c[nH]c3c(NC(=O)NCCCC(=O)O)cccc23)CC1)c1ccccc1 [P-I-5] | < 1000 nM
COC(=O)CCCNC(=O)Nc1cccc2c(C(=O)C(=O)N3CCN(C(=O)c4ccccc4)C[C@H]3C)c[nH]c12 [P-C-4] | < 1000 nM

Compound | EC50
C[C@@H]1CN(C(=O)c2ccccc2)CCN1C(=O)C(=O)c1c[nH]c2c(NC(=O)NCCCCCCCCNC(=O)Nc3ccc(B(O)O)cc3)cccc12 [P-C-109] | < 1000 nM
C[C@@H]1CN(C(=O)c2ccccc2)CCN1C(=O)C(=O)c1c[nH]c2c(NC(=O)NCCCCCCNC(=O)NCCOCCOCCN)cccc12 [P-C-111] | < 1000 nM
COC(=O)[C@H]1OC(C)(C)O[C@@H]1C(=O)Nc1cccc2c(C(=O)C(=O)N3CCN(C(=O)c4ccccc4)C[C@H]3C)c[nH]c12 [P-A-13] | < 1000 nM
C[C@@H]1CN(C(=O)c2ccccc2)CCN1C(=O)C(=O)c1c[nH]c2c(NS(C)(=O)=O)cccc12 [P-E-1] | < 1000 nM
C[C@@H]1CN(C(=O)c2ccccc2)CCN1C(=O)C(=O)c1c[nH]c2c(NC(=O)Nc3cc(C(=O)O)cc(C(=O)O)c3)cccc12 [P-I-14] | < 1000 nM
C[C@@H]1CN(C(=O)c2ccccc2)CCN1C(=O)C(=O)c1c[nH]c2c(NC(=O)/C=C/C(=O)O)cccc12 [P-A-9] | < 1000 nM
CC(=O)Nc1ccc(F)c2c(C(=O)C(=O)N3CCC(=C(C#N)c4ccccn4)CC3)c[nH]c12 [P-B-1] | < 1000 nM
C[C@@H]1CN(C(=O)c2ccccc2)CCN1C(=O)C(=O)c1c[nH]c2c(NC(=O)NCCOCCOCCN)cccc12 [P-C-205] | < 1000 nM
CCOC(=O)CCNC(=O)Nc1cccc2c(C(=O)C(=O)N3CCN(C(=O)c4ccccc4)C[C@H]3C)c[nH]c12 [P-C-2] | < 1000 nM
C[C@@H]1CN(C(=O)c2ccccc2)CCN1C(=O)C(=O)c1c[nH]c2c(N3CCN(CCN(C)C)C3=O)cccc12 [P-H-2] | < 1000 nM
C[C@@H]1CN(C(=O)c2ccccc2)CCN1C(=O)C(=O)c1c[nH]c2c(NS(=O)(=O)N(C)C)cccc12 [P-E-5] | < 1000 nM
N#CC(=C1CCN(C(=O)C(=O)c2c[nH]c3c(NC(=O)Nc4ccccc4C(=O)O)cccc23)CC1)c1ccccc1 [P-I-10] | < 1000 nM
CC(=O)Nc1ccc(F)c2c(C(=O)C(=O)N3CCN(C(=O)c4ccccc4)CC3)c[nH]c12 [P-B-2] | < 1000 nM
COC(=O)c1ccccc1NC(=O)Nc1cccc2c(C(=O)C(=O)N3CCN(C(=O)c4ccccc4)C[C@H]3C)c[nH]c12 [P-C-9] | < 1000 nM
CC(=O)Nc1ccc(F)c2c(C(=O)C(=O)N3CCC(=C(C#N)c4ccncc4)CC3)c[nH]c12 [P-B-6] | < 1000 nM
C[C@@H]1CN(C(=O)c2ccccc2)CCN1C(=O)C(=O)c1c[nH]c2c(NC(=O)NCCOCCOCCNC(=O)c3cccc(B(O)O)c3)cccc12 [P-C-401] | < 1000 nM
C[C@@H]1CN(C(=O)c2ccccc2)CCN1C(=O)C(=O)c1c[nH]c2c(NC(=O)NCCC(=O)O)cccc12 [P-I-2] | < 1000 nM
CNCCN1CCN(c2cccc3c(C(=O)C(=O)N4CCN(C(=O)c5ccccc5)C[C@H]4C)c[nH]c23)C1=O [P-H-1] | < 1000 nM
CC(=O)Nc1ccc(F)c2c(C(=O)C(=O)N3CCC(=C(C#N)c4cccnc4)CC3)c[nH]c12 [P-B-5] | < 1000 nM
COC(=O)C(O)C(O)C(=O)Nc1cccc2c(C(=O)C(=O)N3CCN(C(=O)c4ccccc4)C[C@H]3C)c[nH]c12 (stereo partly shown) [P-A-17] | < 1000 nM
N#CC(=C1CCN(C(=O)C(=O)c2c[nH]c3c(NC(=O)NCCCCCC(=O)O)cccc23)CC1)c1ccccc1 [P-I-7] | < 1000 nM
